Measured values taken from paper PMC5944384 (Chemical Science, 2018).

Tests used:
[1] = tested on: HCT-15 colon cancer cells; assay: MTT cytotoxicity test, 72 h; type: cell-based, human; settings: read-out: IC50 HCT-15 colon
[2] = tested on: BCPAP thyroid cancer cells; assay: MTT cytotoxicity test, 72 h; type: cell-based, human; settings: read-out: IC50 BCPAP thyroid
[3] = tested on: PSN-1 pancreatic cancer cells; assay: MTT cytotoxicity test, 72 h; type: cell-based, human; settings: read-out: IC50 PSN-1 pancreas
[4] = tested on: LoVo colon cancer cells; assay: MTT cytotoxicity test, 72 h; type: cell-based, human; settings: read-out: IC50 LoVo colon
[5] = tested on: 2008 ovarian adenocarcinoma cells (cisplatin sensitive); assay: MTT cytotoxicity test, 72 h; type: cell-based, human; settings: read-out: IC50 2008 ovary
[6] = tested on: C13* ovarian cancer cells (cisplatin resistant); assay: MTT cytotoxicity test, 72 h; type: cell-based, human; settings: for Resistant factor (RF): IC50 resistant/parent line, C13*/2008; for IC50: read-out: IC50 C13* ovary, MTT, 72 h
[7] = tested on: panel of human cancer cell lines (HCT-15, BCPAP, PSN-1, LoVo, 2008, C13*); assay: MTT cytotoxicity test, average over the six cell lines; type: cell-based; settings: for IC50: read-out: Average IC50, average of one compound over the six cell lines
[8] = tested on: HEK293 cells; assay: MTT cytotoxicity test in non-cancerous cells; type: cell-based, human; settings: for Selectivity index (SI) BCPAP: IC50 non-tumor (HEK293)/tumor cell line BCPAP; for Selectivity index (SI) LoVo: IC50 non-tumor (HEK293)/tumor cell line LoVo; for Selectivity index (SI) PSN-1: IC50 non-tumor (HEK293)/tumor cell line PSN-1; for IC50: read-out: IC50 HEK293, MTT, 72 h, non-cancerous cells
[9] = tested on: PSN-1 3D spheroids; assay: Cytotoxicity in 3D spheroid cultures, APH test; settings: for IC50: read-out: IC50 PSN-1 3D, spheroids, 72 hours
[10] = tested on: LoVo OXP colon cancer cells; assay: MTT cytotoxicity test, oxaliplatin resistant cells; type: cell-based, human; settings: IC50 resistant/parent line
[11] = Stability in phosphate buffer at 37 °C monitored by HPLC; type: physicochemical; settings: pH 7, HPLC, followed over days
[12] = biological target: T1, COX-2 (Homo sapiens, UniProt P35354); assay: COX-2 inhibition in treated cells; type: cell-based; settings: PSN-1 cells, 24 h, 1 μM
T1 sequence (P35354 18-604): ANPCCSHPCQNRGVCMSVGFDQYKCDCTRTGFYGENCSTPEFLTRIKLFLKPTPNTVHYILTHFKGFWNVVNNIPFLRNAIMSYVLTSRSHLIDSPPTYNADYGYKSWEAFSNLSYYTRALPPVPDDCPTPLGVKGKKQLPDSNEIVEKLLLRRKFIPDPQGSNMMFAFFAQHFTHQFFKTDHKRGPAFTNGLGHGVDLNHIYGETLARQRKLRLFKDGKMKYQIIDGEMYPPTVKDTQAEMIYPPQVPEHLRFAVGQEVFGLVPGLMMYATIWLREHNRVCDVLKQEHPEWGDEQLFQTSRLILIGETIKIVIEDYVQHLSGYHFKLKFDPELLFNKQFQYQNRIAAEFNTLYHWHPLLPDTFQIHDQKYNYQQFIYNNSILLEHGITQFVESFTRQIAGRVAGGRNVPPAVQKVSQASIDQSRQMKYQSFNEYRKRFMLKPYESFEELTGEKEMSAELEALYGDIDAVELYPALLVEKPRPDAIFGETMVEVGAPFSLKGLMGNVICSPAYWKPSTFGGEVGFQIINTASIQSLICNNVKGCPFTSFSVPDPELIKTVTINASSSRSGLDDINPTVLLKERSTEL

[13] = tested on: PSN-1 cells; assay: Mitochondrial membrane potential; type: cell-based, human; settings: 24 h, 1 μM
[14] = tested on: PSN-1 cells; assay: ROS production; type: cell-based, human; settings: 10 μM, compared with antimycin A
[15] = tested on: HEK293 cells; assay: ROS production in non-cancerous cells; type: cell-based, human; settings: 10 µM
[16] = tested on: HEK293 cells; assay: Mitochondrial membrane potential in non-cancerous cells; type: cell-based, human; settings: 24 h, 1 µM

Compound	IC50 [1] [nM]	IC50 [2] [µM]	IC50 [3] [µM]	IC50 [4] [nM]	IC50 [5] [nM]	Resistant factor (RF) [6]	IC50 [6] [µM]	IC50 [7] [µM]	Selectivity index (SI) BCPAP [8]	Selectivity index (SI) LoVo [8]	Selectivity index (SI) PSN-1 [8]	IC50 [8] [µM]	IC50 [9] [µM]	other results
[NH2][Pt]([NH2])([Cl])[Cl] [CDDP, Cisplatin]	15300 ± 2630	7.38 ± 1.53	18.2 ± 3.11	9150 ± 2070	2220 ± 1020	10.1	22.5 ± 3.15	12.5	2.6	2.1	1.1	19.6 ± 2.33	52.6 ± 3.78	–
[NH2][Pt]([NH2])([Cl])([Cl])([O]C(=O)CCCc1ccccc1)[O]C(=O)C(Cl)Cl [CPD, ctc-[Pt(NH3)2(PhB)(DCA)Cl2]]	1060 ± 130	0.11 ± 0.03	0.1 ± 0.02	19 ± 10	330 ± 40	1.8	0.58 ± 0.06	0.37	14.2	82.1	15.6	1.56 ± 0.22	0.95 ± 1.12	Average IC50, times lower than cisplatin ([7]; average over six cell lines): 34 fold; Average IC50, times lower than oxaliplatin ([7]; average over six cell lines): 9 fold; Average IC50, times more potent than CVD ([7]; average over six cell lines): 3 fold; Resistant factor (RF) [10]: < 2; Stability in phosphate buffer solution [11]: stable; COX-2 inhibition [12]: 8.4%; Cells with hypopolarized mitochondrial membrane potential [13]: 25–30%; Increase in cellular basal ROS production [14]: only slightly inferior to that elicited by antimycin A; Induction of cellular ROS production [15]: barely effective; Effect on mitochondrial membrane potential [16]: barely effective; Times more active than cisplatin in PSN-1 3D spheroids ([9]; 72 hours): more than 50 fold
O=C1[O][Pt]2([NH][C@@H]3CCCC[C@H]3[NH]2)[O]C1=O [OXP, oxaliplatin]	1150 ± 430	4.37 ± 1.07	8.25 ± 3.42	1010 ± 340	1530 ± 880	2.0	3.06 ± 1	3.23	–	–	–	–	–	–
